According to article PMC12298351, “Novel 3,19-(N-Phenyl-3-(4-fluorophenyl)-pyrazole) Acetal of Andrographolide Promotes Cell Cycle Arrest and Apoptosis in MDA-MB-231 Breast Cancer Cells” (Pharmaceuticals, 2025):

Columns and labels:
OVCAR-3 = details: OVCAR-3, Ovarian
MDA-MB-435 = details: MDA-MB-435, Melanoma
SF-295 = details: SF-295, CNS
KM12 = details: KM12, Colon
SK-MEL-5 = details: SK-MEL-5, Melanoma
SF-268 = details: SF-268, CNS
MOLT-4 = details: MOLT-4, Leukemia
MCF7 = details: MCF7, Breast
DU-145 = details: DU-145, Prostate
SK-OV-3 = details: SK-OV-3, Ovarian
786-0 = details: 786-0, Renal
[1] = DPPH radical scavenging assay; details: 25 µM test compound, 0.1 mM DPPH, acetonitrile, 30 min
Procedure: A stable free radical DPPH (2,2-Diphenyl-1-picrylhydrazyl) assay was employed to test the antioxidant activity of all the synthesized compounds. Concisely, 25 µM of the test compounds were dissolved in acetonitrile and combined with 0.1 mM of DPPH (in acetonitrile) in a 1:2 ratio (80 µL and 160 µL). Then, the mixture was left undisturbed in the dark for 30 min at room temperature. After 30 min, the absorbance of the solutions was instantly measured at 517 nm using a Varioskan Multiplate Reader (Thermo Fisher Scientific, Mumbai, India). Ascorbic acid (in acetonitrile) was used as the positive control, and andrographolide and isoandrogapholide (in acetonitrile) were used as the standards. The following equation was used to determine the DPPH radical scavenging activity:% Radical scavenging activity = (Ac − As)/Ac × 100 where Ac = the absorbance of the blank (DPPH solution), and As = the absorbance of the test samples

HCC-2998 = details: HCC-2998, Colon
CAKI-1 = details: CAKI-1, Renal
OVCAR-5 = details: OVCAR-5, Ovarian
RXF 393 = details: RXF 393, Renal
MDA-MB-468 = details: MDA-MB-468, Breast
SF-539 = details: SF-539, CNS
SK-MEL-28 = details: SK-MEL-28, Melanoma
RPMI-8226 = details: RPMI-8226, Leukemia
HCT-116 = format: cell-based; details: HCT-116, Colon
HCT-15 = details: HCT-15, Colon
[2] = read-out: 50% lethal concentration (LC50)

Work on C=C1CCC2C3(C)COC(c4cn(-c5ccccc5)nc4-c4ccc(Br)cc4)OC3CCC2(C)C1CC=C1C(=O)OCC1O (stereo not shown) [1h] yielded a GI50 (OVCAR-3) of 1.52 µM, a Total growth inhibition (TGI) (OVCAR-3) of 3.32 µM and a CC50 (OVCAR-3; [2]) of 7.25 µM. It also gave a GI50 (MDA-MB-435) of 1.67 µM, a Total growth inhibition (TGI) (MDA-MB-435) of 3.34 µM and a CC50 (MDA-MB-435; [2]) of 6.67 µM. The GI50 (MDA-MB-231; MDA-MB-231, Breast) was 1.59 µM, the Total growth inhibition (TGI) (MDA-MB-231; MDA-MB-231/ATCC, Breast) was 3.14 µM and the CC50 (MDA-MB-231; read-out: 50% lethal concentration (LC50), MDA-MB-231/ATCC, Breast) was 6.19 µM. It also gave a GI50 (SF-295) of 1.54 µM, a Total growth inhibition (TGI) (SF-295) of 2.93 µM and a CC50 (SF-295; [2]) of 5.57 µM. For the same compound, the Total growth inhibition (TGI) (NCI-H460; NCI-H460, Non-Small Cell Lung) was 3.34 µM, the GI50 (NCI-H460; NCI-H460, Non-Small-Cell Lung) was 1.59 µM and the CC50 (NCI-H460; read-out: 50% lethal concentration (LC50), NCI-H460, Non-Small Cell Lung) was 7 µM. The GI50 (KM12) was 1.68 µM, the Total growth inhibition (TGI) (KM12) was 3.68 µM and the GI50 (SK-MEL-5) was 1.6 µM. The Total growth inhibition (TGI) (SK-MEL-5) was 2.96 µM, the CC50 (SK-MEL-5; [2]) was 5.44 µM and the Total growth inhibition (TGI) (EKVX; Non-Small Cell Lung) was 5.35 µM. It also gave a GI50 (EKVX; Non-Small-Cell Lung) of 2.21 µM, a CC50 (EKVX; read-out: 50% lethal concentration (LC50), Non-Small Cell Lung) of over 100 µM and a GI50 (ACHN; Renal) of 2.07 µM. The Total growth inhibition (TGI) (ACHN; Renal) was 4.78 µM, the CC50 (ACHN; read-out: 50% lethal concentration (LC50), Renal) was over 100 µM and the GI50 (SF-268) was 2.11 µM. For the same compound, the Total growth inhibition (TGI) (SF-268) was 4.68 µM, the CC50 (SF-268; [2]) was 11.5 µM and the GI50 (MOLT-4) was 0.61 µM. For the same compound, the CC50 (MOLT-4; [2]) was over 100 µM, the GI50 (MCF7) was 1.49 µM and the Total growth inhibition (TGI) (MCF7) was 4.81 µM. It also gave a CC50 (MCF7; [2]) of 72 µM, a GI50 (DU-145) of 1.77 µM and a Total growth inhibition (TGI) (DU-145) of 3.59 µM. It also gave a CC50 (DU-145; [2]) of 7.28 µM, a GI50 (SK-OV-3) of 2.03 µM and a Total growth inhibition (TGI) (SK-OV-3) of 8.27 µM. For the same compound, the CC50 (SK-OV-3; [2]) was over 100 µM, the GI50 (786-0) was 2.07 µM and the Total growth inhibition (TGI) (786-0) was 4.49 µM. The CC50 (786-0; [2]) was 9.76 µM, the “% DPPH radical scavenging activity” value [1] was 57.51% and the GI50 (HCC-2998) was 1.83 µM. The Total growth inhibition (TGI) (HCC-2998) was 3.49 µM, the Total growth inhibition (TGI) (NCI-H226; NCI-H226, Non-Small Cell Lung) was 2.8 µM and the GI50 (NCI-H226; NCI-H226, Non-Small-Cell Lung) was 1.36 µM. It also gave a CC50 (NCI-H226; read-out: 50% lethal concentration (LC50), NCI-H226, Non-Small Cell Lung) of 5.77 µM, a GI50 (CAKI-1) of 1.59 µM and a Total growth inhibition (TGI) (CAKI-1) of 3.49 µM. It also gave a CC50 (CAKI-1; [2]) of 7.69 µM, a GI50 (OVCAR-5) of 1.93 µM and a Total growth inhibition (TGI) (OVCAR-5) of 5.08 µM. The CC50 (OVCAR-5; [2]) was over 100 µM, the GI50 (RXF 393) was 1.71 µM and the Total growth inhibition (TGI) (RXF 393) was 3.23 µM. The CC50 (RXF 393; [2]) was 6.11 µM, the GI50 (MDA-MB-468) was 1.93 µM and the Total growth inhibition (TGI) (MDA-MB-468) was 3.47 µM. It also gave a CC50 (MDA-MB-468; [2]) of 6.23 µM, a GI50 (SF-539) of 1.76 µM and a Total growth inhibition (TGI) (SF-539) of 3.18 µM. It also gave a CC50 (SF-539; [2]) of 5.73 µM, a GI50 (SK-MEL-28) of 1.73 µM and a Total growth inhibition (TGI) (SK-MEL-28) of 3.3 µM. The CC50 (SK-MEL-28; [2]) was 6.3 µM, the GI50 (RPMI-8226) was 1.28 µM and the Total growth inhibition (TGI) (RPMI-8226) was over 100 µM. The CC50 (RPMI-8226; [2]) was over 100 µM, the GI50 (HCT-116) was 0.94 µM and the Total growth inhibition (TGI) (HCT-116) was 2.48 µM. It also gave a CC50 (HCT-116; [2]) of 6.3 µM, a GI50 (HCT-15) of 1.6 µM and a Total growth inhibition (TGI) (HCT-15) of 3.3 µM. It also gave a CC50 (HCT-15; [2]) of 6.83 µM.
